Legend:
HUVEC-ST cells [1] = assay: MTT cell viability assay on HUVEC-ST cells; type: cell-based, human; conditions: for Inhibitory concentration IC10 (reduces cell viability by 10%) / IC50: HUVEC-ST cell line, 24 h incubation, MTT; for Concentrations that significantly decreased cell viability: HUVEC-ST, 24 h incubation with flavonoid, p < 0.05 vs control; for IC50: Homo sapiens, read-out: Inhibitory concentration IC50 (reduces cell viability by 50%)
Experimental: (§1) Unless otherwise indicated, in experiments, cells were seeded at an appropriate density for the specific assay into 96-well plates or Petri dishes. They were then incubated in standard culture conditions, which included a temperature of 37 °C, 100% relative humidity, and a 5% CO2 incubator. […] After treatment, the cells were washed with PBS and, depending on the experiment, immediately used for measurement or cultured in a fresh medium for 24 or 48 h. Control cells were treated with a corresponding volume of PBS. Additional controls for solvents were also performed.
The principle of the method is a measurement of the absorbance of formazan, a product of the reduction of the water-soluble tetrazolium salt (MTT) by NADPH-dependent cellular oxidoreductases (mainly succinate dehydrogenase) in living cells. Formazan is insoluble in water and precipitates as purple crystals. The amount of formazan is proportional to the number of living and metabolically active cells.
After treatment, the cells were washed with PBS and cultured in a fresh medium for 48 h. Subsequently, the medium was aspirated, and an aliquot of 50 µL of 0.05 mg/mL MTT solution was added to each microplate well for 3 h. The formazan crystals were dissolved in dimethyl sulfoxide (DMSO), and the absorbance was measured at a wavelength of λ = 580 nm. The percentage of viable cells was calculated by comparing the absorbance value of the test samples to the absorbance value of the control, taking the absorbance of the control as 100%.

MCF-7 cells [2] = assay: Cytometric measurement of doxorubicin accumulation in MCF-7 cells; type: cell-based, human; conditions: 22 h preincubation with flavonoid IC50, after 20 min of drug
Experimental: (§2) The aromatic rings in the hydrophobic part of doxorubicin give the drug molecule fluorescent properties (λex = 490 nm, λem = 590 nm). Thus, the flow cytometric measurement of drug fluorescence inside the cells allows for the monitoring of its transport rate through the cell membrane. The increase in the intensity of drug fluorescence inside the cells is highly correlated with its accumulation.
(§3) The DOX was added to the cell suspension to achieve a final concentration equal to the IC50 value. During one hour of incubation (temp 37 °C) with the drug, samples for cytometric measurement were taken from the cell suspension after the first 5 min and then after every 10 min. Samples were analyzed using the flow cytometer LSR® II from Becton Dickinson (San Jose, CA, USA) using an argon laser with a wavelength of λ = 488 nm. Doxorubicin fluorescence intensity was calculated per single cell.

HUVEC-ST cells [3] = assay: Cytometric measurement of doxorubicin accumulation in HUVEC-ST cells; type: cell-based, human; conditions: 22 h preincubation with flavonoid IC50, 1 h study period
Experimental: as §2, §3

[4] = system: cleaved PARP in MCF-7 cells; assay: Cleaved PARP In-Cell ELISA in MCF-7 cells; type: cell-based, human; conditions: docetaxel + flavonoid IC50, most intense of all times and combinations
Experimental: as §1
(§4) The expression of the protein was monitored using a target-specific primary antibody against an 85 kDa stable fragment of PARP proteolysis and a horseradish peroxidase-conjugated detection reagent.
(§5) The amount of cleaved PARP was measured in cells according to the manufacturer’s protocol immediately after the treatment and after 24 or 48 h postincubation. The absorbance was measured at a wavelength of λ = 450. Additionally, the whole cell staining was performed with Janus Green dye, and the absorbance was measured at a wavelength of λ = 615. […] Subsequently, the values were calculated as a fold increase, which means the ratio of an increased amount of cleaved PARP to the amount of cleaved PARP in control cells.

MCF-7 cell [5] = system: MCF-7 cell; parameters: method as in Wang et al. [49]; conditions: 5–100 µmol/L for 72 h; ref Wang et al. [49]; cited from earlier work
MCF-7 cells [6] = assay: Alkaline comet assay in MCF-7 cells; type: cell-based, human
Experimental: as §1
The comet assay, also known as the single-cell gel electrophoresis assay, is a highly sensitive and versatile method for measuring single- and double-stranded DNA breaks. The assay uses an electric field to move negatively charged DNA fragments through an agarose gel. The amount of migration reflects the level of DNA damage in the cells.
The analysis was performed under alkaline conditions, according to the method of Singh et al., on cells immediately after the treatment and 24 or 48 h postincubation. […] One hundred randomly chosen cells were analyzed on each slide using a fluorescence microscope Zeiss Axio Scope A1 (Carl Zeiss, Oberkochen, Germany) with a video camera connected to the image-analysis system Lucia-Comet v. […]

[7] = system: cleaved PARP in HUVEC-ST cells; assay: Cleaved PARP In-Cell ELISA in HUVEC-ST cells; type: cell-based, human
Experimental: as §1, §4, §5

MCF-7 cell [8] = system: MCF-7 cell; parameters: method as in Liu et al. [48]; conditions: ref Liu et al. [48]; read-out: IC50, MCF-7 cell growth inhibition; cited from earlier work
MRP1 = system: MRP1; parameters: method as in PMID 15670588; conditions: 25 µmol/L; ref [65]; cited from earlier work
MRP2 = system: MRP2; parameters: method as in PMID 15670588; conditions: 25 µmol/L; ref [65]; cited from earlier work

O=C(O)[C@H]1O[C@@H](Oc2cc3oc(-c4ccccc4)cc(=O)c3c(O)c2O)[C@H](O)[C@@H](O)[C@@H]1O [baicalin, baicalein 7-O-β-D-glucuronide]
Inhibitory concentration IC10 (reduces cell viability by 10%) (HUVEC-ST cells [1]): 101 ± 10.7 µmol/L
Concentrations that significantly decreased cell viability (HUVEC-ST cells [1]): ≥ 112 µmol/L
IC50 (HUVEC-ST cells [1]): 167 ± 6.7 µM
Amount of doxorubicin in cells relative to cells not treated with flavonoids (MCF-7 cells [2]): over two times higher
Enhancement of doxorubicin accumulation/influx (HUVEC-ST cells [3]): observed only during the first 30 min of the study
PARP cleavage, fold increase to control [4]: 2.5 fold
Inhibitory effect on MCF-7 cell proliferation (MCF-7 cell [5]): did not observe any inhibitory effect

O=c1cc(-c2ccccc2)oc2cc(O)c(O)c(O)c12 [baicalein, 5,6,7-Trihydroxyflavone]
Inhibitory concentration IC10 (reduces cell viability by 10%) (HUVEC-ST cells [1]): 75 ± 1.8 µmol/L
Concentrations that significantly decreased cell viability (HUVEC-ST cells [1]): ≥ 56 µmol/L
IC50 (HUVEC-ST cells [1]): 115 ± 2.6 µM
Amount of doxorubicin in cells relative to cells not treated with flavonoids (MCF-7 cells [2]): over two times higher
Enhancement of doxorubicin accumulation/influx (HUVEC-ST cells [3]): increased doxorubicin accumulation was maintained for the whole study period
DNA in the comet tail (MCF-7 cells [6]; docetaxel IC50 + flavonoid IC50, 24 h after incubation): 16%
DNA in the comet tail (MCF-7 cells [6]; docetaxel IC50 + flavonoid IC50, immediately after incubation): 19%
Amount of cleaved PARP relative to control cells ([7]; doxorubicin + flavonoid IC50, 48 h after incubation): twice higher than in control cells
Amount of cleaved PARP relative to control cells ([7]; flavonoid IC50 alone, 24 and 48 h after incubation): nearly two times higher than in control cells
IC50 (MCF-7 cell [8]): 85.1 ± 1.26 µM
Inhibition of MRP1 protein activity (MRP1): inhibit the activity of MRP2 and MRP1 proteins
Inhibition of MRP2 protein activity (MRP2): inhibit the activity of MRP2 and MRP1 proteins
